Measurements published in patent US20020169101A1, “Treatment of sexual dysfunction” (priority 1999, published 2002).

Assays:
[1] = biological target: T1, human GRP receptor (BB2) (Homo sapiens, UniProt P30550); assay: BB2 binding assay ([125I][Tyr4]bombesin displacement, CHO-K1 membranes); conditions: Table 1, human GRP receptor binding affinity; Ki from IC50 by Cheng-Prusoff; read-out: GRP Kj
T1 construct: expressed in transfected cells; membranes prepared from the cells
Outline: (§1)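 Competition against <0.1 nM [125I][Tyr4]bombesin, 60 min for the NMB receptor and 90 min for the GRP receptor, using homogenised membranes of human-receptor-expressing CHO-K1 cells in pH 7.4 Tris buffer. Bound label was filtered and gamma-counted, with 1 μM bombesin as nonspecific. Ki values came from IC50 via Cheng-Prusoff.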

[2] = biological target: T2, human NMB receptor (BB1) (Homo sapiens, UniProt P28336); assay: BB1 binding assay ([125I][Tyr4]bombesin displacement, CHO-K1 membranes); conditions: Table 1, human NMB receptor binding affinity; Ki from IC50 by Cheng-Prusoff; read-out: NMB Ki
T2 construct: expressed in transfected cells; membranes prepared from the cells
Outline: as §1

[3] = tested on: sexual behaviour of sexually dysfunctional male rats; assay: Sexual behaviour of fluoxetine-induced sexually dysfunctional male rats; assay type: in vivo, rat
Method: Sprague Dawley male rats (Charles River, UK) were kept, 4 rats per cage, in a reversed lighting regime (12:12 hours, lights off at 5.00 h), with free access to food and water. The rats were pre-selected by being presented with a receptive female at 4 days intervals, i.e. every third day (having 2 clear days between presentations) until completing 6-7 trials of baseline determination. The animals showing consistently vigorous behaviour (ejaculatory latencies <300s) were chosen for further experiments. Animals were treated for 3 consecutive days with either vehicle (water) or fluoxetine (20 mg/kg, i.p., in a 2 ml/kg dosing volume). On the fourth day, the animals treated with water received vehicle (veh+veh) and the animals treated with fluoxetine received one of the three following treatments: Compound (1) (15 mg/kg, dissolved in 50% 2-hydroxypropyl-β-cyclodextrin in saline), vehicle (cyclodextrine), or yohimbine (2 mg/kg dissolved in water). All treatments were administered i.p. in a 1 ml/kg volume, 1 h before tests.
(§2) For all the sexual behaviour tests, the males were placed in an observation arena (50-60 cm diameter), starting 5 hours into the dark cycle and observed under red illumination. Three to 4 minutes after placing the male in the arena, a receptive female (ovariectomised, bearing a 7 mm Silastic implant of oestradiol benzoate) was introduced to the arena and the following parameters noted: Mount Latency: time (in seconds) taken between introduction of female and first mount. A maximum time of 15 minutes (900 seconds) was allowed, and the test terminated if no mounts were recorded within that time (FIG. 16), Ejaculation Latency: time (in seconds) taken from first intromission to ejaculation. A maximum time of 30 minutes (1800 seconds) was given, and the test terminated if ejaculation was not achieved in that time (FIG. 17), Percentage of males achieving ejaculation within 30 minutes was calculated (FIG. 18).
A one-way ANOVA followed by Dunnett's t test was used to compare the fluoxetine+vehicle group and other groups for mount and ejaculatory latencies. Percentage of animals ejaculating was analysed using a Chi-square test followed by Fisher's test. (*: P<0.05, **: P<0.01, ***: P<0.001; n=15-19).

[4] = tested on: sexual behaviour of normal male rats; assay: Sexual behaviour of normal (sexually vigorous) male rats; assay type: in vivo, rat; conditions: Compound (1) 15 mg/kg or Fluoxetine 20 mg/kg i.p. 1 h before test
Method: The potentially stimulatory effect of Compound (1) on male sexual behaviour has been tested on sexually vigorous rats. Sprague Dawley male rats (Charles River, UK) were kept, 4 rats per cage, in a reversed lighting regime (12:12 hours, lights off at 5.00 h), with free access to food and water. The rats were pre-selected by being presented with a receptive female at 4 days intervals, i.e. every third day (having 2 clear days between presentations) until completing 6-7 […] of baseline determination. The animals showing consistently vigorous behaviour (ejaculatory latencies <300s) were chosen for further experiments (n—24). Animals were randomised into three groups. All animals received all three treatments following a latin-square design. Treatments were administered once a week, with a baseline test in between treatments (4 days intervals between baseline and test day). Treatments were Compound (1) (15 mg/kg, dissolved in 50% 2-hydroxypropyl-β-cyclodextrin in saline), vehicle, or Fluoxetine (20 mg/kg dissolved in 100% DMSO). All treatments were administered i.p. in a 1 ml/kg volume, 1 h before tests.
as §2, with “11), Intromission Latency: time (in seconds) taken between introduction of female and first intromission (FIG. 12), Number of Mounts: to reach ejaculation. When ejaculation was not reached, the number of mounts was not analyzed, Number of Intromissions: to reach ejaculation. When ejaculation was not reached, the number of intromissions was not analyzed (FIG. 13 is number of mounts+intromissions),” for “16),”, “14), and Refractory Period: time (in seconds) taken from ejaculation to the first mount” for “17), Percentage”, “the next series of sexual activity. In those animals reaching” for “males achieving”, “the test” for “within 30 minutes”, “terminated at the end of the refractory period, as indicated by the first mount of the next sexual cycle” for “calculated”, “15).” for “18).”
A one-way ANOVA followed by Dunnett's t test was used to compare treated vs vehicle groups each day of testing, for all the sexual behaviour parameters. (*P<0.05, **P<0.01; n=15-16).

[5] = tested on: female rat sexual proceptivity (NMB-inhibited); assay: Inhibition of female rat proceptivity by i.c.v. NMB and its antagonism; assay type: in vivo; conditions: progesterone 0.5 mg s.c. 4 h; NMB 100 ng i.c.v. 10 min before test in progesterone-treated rats; Compound (1) 15 mg/kg i.p. 1 h before NMB (FIG. 5)
Method: Ovariectomised female rats (Sprague Dawley, obtained from Charles River, UK) were stereotaxically implanted (coordinates 0.89 mm behind Bregma, 1.3 mm lateral and 2.5 mm vertical) with stainless steel cannulae (6 mm long, O.D. 0.75 mm), held in place with dental cement. Animals were housed in groups of three and returned to a reversed lighting system of 12 h light:dark (lights off 5.00-17.00 h). Correct placement of the cannulae was assessed post-mortem. Rats were used for tests two weeks after ovariectomy (one week after cannulation). The experiments started at least 5 h into the dark period. Forty eight hours before tests, the animals were primed with 5 μg oestradiol benzoate (OB) (s.c, in corn oil) and adapted to the apparatus (in the absence of stimuli animals) for 10 min on 2 consecutive days prior testing. The 10 min test was carried out as previously described. The difference in the percentage of time spent investigating male minus female was calculated, out of the total time spent investigating stimuli.
Progesterone (Prog, 0.5 mg/0.1 ml) was dissolved in corn oil and administered subcutaneously (s.c.), 4 h before test, to induce proceptive behaviour. Compound (1) (15 mg/kg, i.p.) was dissolved in 50% 2-hydroxypropyl-β-cyclodextrin in saline and administered 1 h before the i.c.v. administration. Neuromedin B was obtained from Bachem, UK. It was dissolved in isotonic saline and administered i.c.v. over a 30 sec period, with the aid of a pump set to deliver a flow of 10 μl/min, 10 min before tests. The dosing volume was 5 μl/rat. Each rat received a total amount of 100 ng.

[6] = fluoxetine 20 mg/kg i.p. for 3 consecutive days, vs vehicle+vehicle group

T1 sequence (P30550 whole entry): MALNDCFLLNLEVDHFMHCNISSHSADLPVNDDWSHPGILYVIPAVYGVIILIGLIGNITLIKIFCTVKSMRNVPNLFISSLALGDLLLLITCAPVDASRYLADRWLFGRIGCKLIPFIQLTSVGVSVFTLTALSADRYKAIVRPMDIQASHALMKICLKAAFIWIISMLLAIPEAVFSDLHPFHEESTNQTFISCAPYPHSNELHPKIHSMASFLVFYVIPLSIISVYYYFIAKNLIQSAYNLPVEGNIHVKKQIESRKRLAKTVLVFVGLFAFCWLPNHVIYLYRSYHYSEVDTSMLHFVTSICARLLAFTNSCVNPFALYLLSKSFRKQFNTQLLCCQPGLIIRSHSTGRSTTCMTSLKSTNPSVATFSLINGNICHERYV
T2 sequence (P28336 whole entry): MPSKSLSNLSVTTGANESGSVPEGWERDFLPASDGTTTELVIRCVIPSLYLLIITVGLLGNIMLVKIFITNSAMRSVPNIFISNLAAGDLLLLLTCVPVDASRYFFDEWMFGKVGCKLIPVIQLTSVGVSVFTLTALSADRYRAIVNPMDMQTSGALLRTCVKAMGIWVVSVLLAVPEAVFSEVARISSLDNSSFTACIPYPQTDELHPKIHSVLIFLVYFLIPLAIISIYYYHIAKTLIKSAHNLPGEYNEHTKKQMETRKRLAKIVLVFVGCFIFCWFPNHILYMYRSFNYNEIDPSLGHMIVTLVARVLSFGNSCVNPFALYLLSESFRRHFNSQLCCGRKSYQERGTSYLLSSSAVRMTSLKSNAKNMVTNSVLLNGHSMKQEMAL

Molecule: CCc1coc(N[C@@](C)(Cc2c[nH]c3ccccc23)C(=O)NCC2(c3ccc(OC)cn3)CCCCC2)n1 [Example 15, (S)-2-(4-Ethyl-oxazol-2-ylamino)-3-(1H-indol-3-yl)-N-[1-(5-methoxy-pyridin-2-yl)-cyclohexylmethyl]-2-methyl-propionamide]
- Ki [1]: 1770 nM
- Ki [2]: 213 nM
- melting point: 60 to 65 °C

Molecule: CNCCC(Oc1ccc(C(F)(F)F)cc1)c1ccccc1 (stereo not drawn) [Fluoxetine, reference compound]
- Ejaculation Latency [3, 6]: significantly increased
- Mount Latency [3, 6]: significantly increased
- number of animals ejaculating [3, 6]: significantly lower
- Mount Latency ([4]; vs vehicle (FIG. 11)): significantly increased
- Intromission Latency ([4]; vs vehicle (FIG. 12)): significantly increased
- number of mounts and intromissions required to achieve ejaculation ([4]; vs vehicle (FIG. 13)): No changes
- Ejaculation Latency ([4]; vs vehicle (FIG. 14)): also increased
- Refractory Period ([4]; vs vehicle (FIG. 15)): also increased

Molecule: COC(=O)[C@@H]1[C@H]2C[C@H]3c4[nH]c5ccccc5c4CCN3C[C@@H]2CC[C@@H]1O [Yohimbine, yohimbine]
- Mount Latency ([3]; fluoxetine-pretreated rats, Compound (1) 15 mg/kg or yohimbine 2 mg/kg i.p. 1 h before test, vs fluoxetine+vehicle (FIG. 16)): followed a similar trend, although this did not reach significance
- Ejaculation Latency ([3]; fluoxetine-pretreated rats, Compound (1) 15 mg/kg or yohimbine 2 mg/kg i.p. 1 h before test, vs fluoxetine+vehicle (FIG. 17)): followed a similar trend, although this did not reach significance
- percentage of animals ejaculating ([3]; fluoxetine-pretreated rats, Compound (1) 15 mg/kg or yohimbine 2 mg/kg i.p. 1 h before test, vs fluoxetine+vehicle (FIG. 18)): followed a similar trend, although this did not reach significance

Molecule: neuromedin B [NMB]
- proceptivity (percentage of time investigating male minus female stimulus) [5]: significantly reduced proceptivity
